Tests used:
Anura [1] = test: Displacement of (-)-[3H]alprenolol from adrenergic receptor purified from frog erythrocytes
Anura [2] = test: Displacement of (-)-[3H]alprenolol from adrenergic receptor purified from frog erythrocytes relative to isoproterenol

| Compound | pKb (Anura [1]) | Intrinsic activity (Anura [2]) |
| --- | --- | --- |
| Oc1ccc(CCNCCc2ccc(O)c(O)c2)cc1 | 4.33 | 0.25 |
| CC(NCCc1ccc(O)cc1)C(O)c1ccc(O)cc1 (centres undefined) | 5.06 |  |
| CC(Cc1ccc2c(c1)OCO2)NCC(O)c1ccc(O)c(O)c1 (centres undefined) | 6.17 | 1.1 |
| NC(CCO)C(O)c1ccccc1 (centres undefined) | 4.29 |  |
| CC(N)C(O)c1ccc(O)c(O)c1 (centres undefined) | 4.55 | 0.87 |
| CNC[C@H](O)c1ccc(O)c(O)c1 | 5.07 | 0.75 |
| CC(C)(Cc1ccccc1)NCC(O)c1ccc(O)c(NS(C)(=O)=O)c1 (centres undefined) | 7.85 | 0.27 |
| CNCC(O)c1cccc(NS(C)(=O)=O)c1 (centres undefined) | 4.19 |  |
| COc1cccc(C(O)C(C)NC(C)C)c1 (centres undefined) | 5.11 |  |
| CNC(C)C(O)c1ccccc1 (centres undefined) | 5.04 |  |
| NCCc1ccc(O)cc1 | < 3.7 |  |
| NCC(O)c1ccc(O)cc1 (centres undefined) | < 3.7 |  |
| NCCc1ccc(O)c(O)c1 | < 3.7 |  |
| CNCC(O)c1cccc(O)c1 (centres undefined) | 4.28 |  |
| CCC(N)C(O)c1ccc(O)c(O)c1 (centres undefined) | 4.74 | 0.71 |
| NCCc1ccccc1 | 3.7 |  |
| CC(C)(Cc1ccc(O)cc1)NCC(O)c1ccc(O)c(O)c1 (centres undefined) | 7.22 | 1.2 |
| CC(COc1ccccc1)NC(C)C(O)c1ccc(O)cc1 (centres undefined) | 5.85 |  |
| NCC(O)c1cccc(Cl)c1 (centres undefined) | 4.08 |  |
| CCC(NC1CCCC1)C(O)c1ccc(O)c(O)c1 (centres undefined) | 4.41 | 0.64 |
| CC(COc1ccccc1)NC(C)C(O)c1ccc(O)c(CS(=O)(=O)N(C)C)c1 (centres undefined) | 7.12 |  |
| Oc1ccc(CCCNCCc2ccc(O)c(O)c2)cc1 | 4.64 | 0.17 |
| CCNCC(O)c1cccc(O)c1 (centres undefined) | 4.66 |  |
| CC(CCc1ccc(O)cc1)NCCc1ccc(O)c(O)c1 (centres undefined) | 4.62 | 0.25 |
| CC(N)C(O)c1cccc(O)c1 (centres undefined) | 4.46 |  |
| CC(Cc1ccc(O)cc1)NCC(O)c1ccc(O)c(O)c1 (centres undefined) | 6.17 | 1.1 |
| CC(CCc1ccccc1)NC(C)C(O)c1ccc(O)cc1 (centres undefined) | 6.74 |  |
| NC[C@H](O)c1ccc(O)c(O)c1 | < 3.7 |  |

Source: ChEMBL document CHEMBL3244136, “Structure-activity study of beta-adrenergic agents using the SIMCA method of pattern recognition” (J Med Chem, 1978)
